Experimental data from paper PMC2867451 (Journal of medicinal chemistry, 2010).
Read-outs that look alike come from different tables or passages of the source.

Tests used:
[1] = tested on: maximal electroshock seizure (MES); details: mice, ip; cited from earlier work
[2] = tested on: maximal electroshock seizure (MES); experiment: maximal electroshock seizure; assay type: in vivo, rat; details: for MES, ED50: rat, po
[3] = tested on: maximal electroshock seizure (MES); experiment: maximal electroshock seizure; assay type: in vivo, mice; details: for duration of action in the MES model: mice (ip) and rat (po); for ED50: Mus musculus, ip, read-out: MES, ED50
behavioral toxicity [4] = experiment: behavioral toxicity, rat; details: for behavioral toxicity observed: rat (po), 500 mg/kg; for PI: protective index TD50/ED50
[5] = tested on: subcutaneous Metrazol (scMet) seizure; experiment: subcutaneous Metrazol; assay type: in vivo, mice; details: Mus musculus, ip, read-out: scMet ED50
behavioral toxicity [6] = details: rat, po; TD50/ED50; cited from earlier work
[7] = rotorod test for neurological impairment, mice; assay type: in vivo; details: male, Carworth Farms No. 1, mouse, in vivo, ip
behavioral toxicity, rat = details: male, Sprague-Dawley, rat, in vivo, po
[8] = tested on: formalin-induced pain response; details: 16 mg/kg; cited from earlier work
[9] = tested on: hippocampal kindled seizure; details: rat; similar screening; cited from earlier work
[10] = tested on: psychomotor 6 Hz (32 mA) seizure; details: mice, ip; cited from earlier work
[11] = tested on: neurological impairment (rotorod test); details: mice, ip; TD50/ED50; cited from earlier work
[12] = tested on: neurological impairment (rotorod test); experiment: rotorod test for neurological impairment, mice; assay type: in vivo; details: mice, ip; rotorod test
[13] = tested on: formalin-induced pain response; experiment: formalin test, biphasic pain model, mice; assay type: in vivo; details: 15 mg/kg; mouse, ip
[14] = tested on: maximal electroshock seizure (MES); details: rat, po; cited from earlier work

For C[C@@H](NCc1ccc(OCc2cccc(F)c2)cc1)C(N)=O [(R)-4], which “MES, ED50” value [1] is on record?
Its value is 7.2 (5.9–8.9) mg/kg.

Which results are given for COC[C@@H](NC(C)=O)C(=O)NCc1ccc(C#Cc2cccc(F)c2)cc1 [(R)-15, (R)-N-4′-(((3″-Fluoro)phenyl)ethynyl)benzyl 2-Acetamido-3-methoxypropionamide]?
duration of seizure protection ([2]; MES test, rat (po)): extended for the entire 4 h testing period; MES, ED50 [2]: 1.4 to 2.4 mg/kg; duration of action in the MES model [3]: extended duration of action

What does the source list for COC[C@@H](NC(C)=O)C(=O)NCc1ccc(-c2cccc(F)c2)cc1 [(R)-11, (R)-N-(3″-Fluorobiphenyl-4-yl)methyl 2-Acetamido-3-methoxypropionamide]?
behavioral toxicity observed (behavioral toxicity [4]): no evidence of behavioral toxicity; MES, ED50 [2]: 1.4 to 2.4 mg/kg

For COC[C@@H](NC(C)=O)C(=O)NCc1ccc(COc2cccc(F)c2)cc1 [(R)-16, (R)-N-4′-(((3″-Fluoro)phenoxy)methyl)benzyl 2-Acetamido-3-methoxypropionamide], which PI (behavioral toxicity [4]; rat, po) is on record?
The PI was greater than 21.

For NC(=O)C(NCc1ccc(OCc2cccc(F)c2)cc1)c1ccco1.O=C(O)C(=O)O (racemic) [(R,S)-75, 2-(4′-((3″-Fluoro)benzyloxy)benzyl)amino-2-(furan-2-yl)acetamide Oxalate], which ED50 [5] is on record?
Its ED50 is 100 to 300 mg/kg.

What about the ED50 [3] of the same compound?
The ED50 was 10 to 30 mg/kg.

For C[C@H](NCc1ccc(OCc2cccc(F)c2)cc1)C(N)=O [(S)-4, Safinamide], which “MES, ED50” value [1] is on record?
The value was 8.0 (7.0–9.1) mg/kg.

With O=C1NC(=O)C(c2ccccc2)(c2ccccc2)N1 [phenytoin] as the compound, how does the PI (behavioral toxicity [6]) read?
The PI was greater than 100.

Which TD50 [7] does the source give for CC(=O)N[C@@H](C)C(=O)NCc1ccc(OCc2cccc(F)c2)cc1 [(S)-6, (S)-N-4′-((3″-Fluoro)benzyloxy)benzyl 2-Acetamidopropionamide] here?
The TD50 was greater than 300 mg/kg.

Which results are given for COC[C@@H](NC(C)=O)C(=O)NCc1ccc(OCc2ccccc2)cc1 [(R)-20, (R)-N-4′-(Benzyloxy)benzyl 2-N-Acetamido-3-methoxypropionamide]?
TD50 (behavioral toxicity, rat): > 10 mg/kg; ED50 [3]: < 3 mg/kg

Which “reduction in pain, formalin model” value [8] does the source give for COC[C@@H](NC(C)=O)C(=O)NCc1ccccc1 [(R)-3, Lacosamide] here?
Its value is “comparable reduction in pain was observed only in the late phase”.

What about the “hippocampal kindled seizure test ED50” value [9] of the same compound?
The value was 14 mg/kg.

And the “6 Hz (32 mA) ED50” value [10]?
The value was 10 mg/kg.

Which PI (behavioral toxicity [4]; rat, po) does the source give for COC[C@@H](NC(C)=O)C(=O)NCc1ccc(OCc2ccccc2F)cc1 [(R)-21, (R)-N-4′-((2″-Fluoro)benzyloxy)benzyl 2-Acetamido-3-methoxypropionamide] here?
The PI was greater than 45.

Which results are given for CCCC(CCC)C(=O)[O-].[Na+] [valproate]?
PI [11]: 1.6; PI (behavioral toxicity [6]): 0.6

Which results are given for CC(=O)NC(C(=O)NCc1ccc(OCc2cccc(F)c2)cc1)c1ccccn1 (racemic) [(R,S)-9, N-4′-((3″-Fluoro)benzyloxy)benzyl 2-Acetamido-2-(pyridin-2-yl)acetamide]?
Tox, TD50 (behavioral toxicity [4]; rat, po, behavioral toxicity): >30 [4] mg/kg; MES, ED50 [2]: >30 [4] mg/kg

For CC(=O)N[C@H](C)C(=O)NCc1ccc(OCc2cccc(F)c2)cc1 [(R)-6, (R)-N-4′-((3″-Fluoro)benzyloxy)benzyl 2-Acetamido-propionamide], which PI (behavioral toxicity [4]; rat, po) is on record?
The PI was greater than 16.

And the “duration of action in the MES model” value [3]?
Its value is “extended duration of action”.

For COC[C@H](NC(C)=O)C(=O)NCc1ccc(OCc2cccc(F)c2)cc1 [(S)-10, (S)-N-4′-((3″-Fluoro)benzyloxy)benzyl 2-Acetamido-3-methoxypropionamide], which “Tox, TD50” value [12] is on record?
Its value is greater than 300 mg/kg.

And the ED50 [3]?
Its ED50 is greater than 300 mg/kg.

With COC[C@@H](NC(C)=O)C(=O)NCc1ccc(Oc2cccc(F)c2)cc1 [(R)-12, (R)-N-4′-((3″-Fluoro)phenoxy)benzyl 2-N-Acetamido-3-methoxypropionamide] as the compound, how does the ED50 [3] read?
Its ED50 is less than 30 mg/kg.

For COC[C@@H](NC(C)=O)C(=O)NCc1ccc(OCc2cccc(F)c2)cc1 [(R)-10, (R)-N-4′-((3″-Fluoro)benzyloxy)benzyl 2-Acetamido-3-methoxypropionamide], which PI (behavioral toxicity [4]; rat, po) is on record?
Its PI is greater than 36.

What about the “pain responses in the acute and the chronic inflammatory phases” value [13] of the same compound?
The value was “reduced pain responses”.

With COC[C@@H](NC(C)=O)C(=O)NCc1ccc(-c2ccccc2)cc1 [(R)-73, (R)-N-(biphenyl-4-yl)methyl 2-acetamido-3-methoxypropionamide] as the compound, how does the “MES, ED50” value [14] read?
The value was 2.0 mg/kg.

With CC(=O)NCC(=O)NCc1ccc(OCc2cccc(F)c2)cc1 [compound 5, N-4′-((3″-Fluoro)benzyloxy)benzyl 2-Acetamidoacetamide] as the compound, how does the behavioral toxicity observed (behavioral toxicity [4]) read?
The behavioral toxicity observed was “no apparent neurological toxicity”.

What about the PI (behavioral toxicity [4]; rat, po) of the same compound?
Its PI is greater than 16.

With COCC(NCc1ccc(OCc2cccc(F)c2)cc1)C(N)=O (racemic) [(R,S)-74, 2-(4′-((3″-Fluoro)benzyloxy)benzyl)amino-3-methoxypropionamide] as the compound, how does the ED50 [3] read?
The ED50 was 30 to 100 mg/kg.

With COC[C@@H](NC(C)=O)C(=O)NCc1ccc(OCc2ccc(F)cc2)cc1 [(R)-22, (R)-N-4′-((4″-Fluoro)benzyloxy)benzyl 2-Acetamido-3-methoxypropionamide] as the compound, how does the PI (behavioral toxicity [4]; rat, po) read?
The PI was greater than 86.
